Measured values published in ChEMBL document CHEMBL1149946, “The conformation of cyclosporin a bound to cyclophilin is altered (once again) following binding to calcineurin: an analysis of receptor-ligand-receptor interactions” (Bioorg Med Chem Lett, 1992).
pKd: −log10 of the molar value.

Experiment: Compound was evaluated for its binding affinity towards cyclophilin (Cyp)

pKd	Compound
6.30	C/C=C/CC(C)(C)[C@@H](O)[C@H]1C(=O)N[C@@H](CC)C(=O)N(C)CC(=O)N(C)[C@@H](CC(C)C)C(=O)N[C@@H](C(C)C)C(=O)N(C)[C@@H](CC(C)C)C(=O)N[C@@H](C)C(=O)N[C@@H](C)C(=O)N(C)[C@@H](CC(C)C)C(=O)N(C)[C@@H](CC(C)C)C(=O)N(C)[C@@H](C(C)C)C(=O)N1C
7.89	C/C=C/C[C@@H](C)[C@H](O)[C@H]1C(=O)N[C@@H](CC)C(=O)N(C)CC(=O)N(C)[C@@H](CC(C)C)C(=O)N[C@H](C(C)C)C(=O)N(C)CC(=O)N[C@@H](C)C(=O)N[C@H](C)C(=O)N(C)[C@H](CC(C)C)C(=O)N(C)[C@H](CC(C)C)C(=O)N(C)[C@H](C(C)C)C(=O)N1C
